Data reported in article PMC12041881, “Tailored phenyl ureas eradicate drug-resistant Mycobacterium tuberculosis by targeting mycolic acid cell wall assembly” (Chemical Science, 2025).
Values after ≈ are worked out from the molar mass of the structure shown. “Also recorded” adds a separate entry of the source. Where two headings read alike, the source gives them in different places.

What was measured:
M. tuberculosis H37Ra = experiment: microbe, parasite or virus in culture; assay type: cell-based, Mycobacterium tuberculosis; settings: for MIC: Mycobacterium tuberculosis, H37RA, read-out: MIC MTB H37Ra
WT M. tuberculosis H37Rv = experiment: microbe, parasite or virus in culture; assay type: cell-based
[1] = test system: three bacterial strains from the mouse microbiota (Oligo-Mouse-Microbiota); experiment: MIC measurements in strains from the Oligo-Mouse-Microbiota; assay type: cell-based
[2] = test system: probe-bound proteins in M. tuberculosis H37Ra cells; assay type: binding; settings: for competition of 227-p1 labelling of EphF and EphD: 5 μM 227-p1, competitor in excess (25 μM 227)
MmpL3 = MmpL3 (Mycobacterium tuberculosis, UniProt P9WJV5); assay type: cell-based, M. tuberculosis
MmpL3, sequence (P9WJV5 whole entry): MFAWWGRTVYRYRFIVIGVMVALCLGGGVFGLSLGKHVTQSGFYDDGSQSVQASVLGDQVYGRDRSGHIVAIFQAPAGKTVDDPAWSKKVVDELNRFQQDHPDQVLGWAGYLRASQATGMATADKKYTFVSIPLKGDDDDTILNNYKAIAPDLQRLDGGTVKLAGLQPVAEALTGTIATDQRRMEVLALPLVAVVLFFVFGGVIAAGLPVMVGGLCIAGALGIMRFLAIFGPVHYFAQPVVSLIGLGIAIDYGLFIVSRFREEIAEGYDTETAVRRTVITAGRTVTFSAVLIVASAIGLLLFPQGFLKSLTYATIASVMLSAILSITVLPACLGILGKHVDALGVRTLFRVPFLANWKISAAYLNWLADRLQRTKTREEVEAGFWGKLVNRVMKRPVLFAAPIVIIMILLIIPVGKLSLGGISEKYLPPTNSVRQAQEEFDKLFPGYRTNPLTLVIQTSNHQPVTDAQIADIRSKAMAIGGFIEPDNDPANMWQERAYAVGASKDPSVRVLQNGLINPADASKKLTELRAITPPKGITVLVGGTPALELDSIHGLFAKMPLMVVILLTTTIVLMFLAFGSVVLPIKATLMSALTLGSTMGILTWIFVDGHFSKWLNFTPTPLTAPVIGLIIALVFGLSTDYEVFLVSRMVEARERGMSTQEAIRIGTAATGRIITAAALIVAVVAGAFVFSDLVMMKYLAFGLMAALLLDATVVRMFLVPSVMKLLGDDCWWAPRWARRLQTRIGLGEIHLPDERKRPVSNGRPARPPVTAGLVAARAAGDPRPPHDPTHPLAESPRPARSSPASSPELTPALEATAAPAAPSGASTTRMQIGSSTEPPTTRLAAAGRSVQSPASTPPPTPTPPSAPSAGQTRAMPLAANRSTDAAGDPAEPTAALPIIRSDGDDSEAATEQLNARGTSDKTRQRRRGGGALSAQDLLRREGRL

physchem = settings: aqueous buffer, kinetic from dmso stock
MTB [3] = experiment: Checkerboard assay with ethionamide; assay type: cell-based, M. tuberculosis; settings: combination with ethionamide
Mtb H37Ra proteome = assay type: cell-based
[4] = test system: M. tuberculosis H37Ra cells; assay type: cell-based
epoxide hydrolase EphF = assay type: biochemical, M. tuberculosis
HeLa cells = experiment: cells; assay type: cell-based; settings: Homo sapiens
in vivo [5] = experiment: in vivo; parameters: species or system CD-1 female mice; settings: female, CD-1, mouse; for bioavailability: F
Procedure: (DMA), and 95% (20% Solutol HS15 in water).
Blood timepoints were taken
liquid chromatography coupled to tandem mass spectrometry. Pharmacokinetic parameters were
LC-MS/MS analytical methods for PK studies
to create standard curves solutions.
10µLs of control, standard, or
internal standards Labetalol (Sigma Aldrich). Extracts were vortexed for 5 minutes and centrifuged at
with 75 µLs of Milli-Q deionized water.
Multiple-reaction monitoring of […]
Extracts were vortexed for 5 minutes
75 µL of extract was combined
HPLC-MS was performed as previously specified.

[6] = i.v. 5 mg kg^−1
in vivo [7] = settings: female, CD-1, mouse
in vitro = settings: mouse, microsomes
M. smegmatis DSM43756 = experiment: MIC / in-house urea library screen against M. smegmatis; assay type: cell-based; settings: read-out: MIC M. smegmatis (Msm)
[8] = test system: MmpL3 underexpressing (−ATc) Mtb H37Rv; assay type: cell-based, M. tuberculosis
Mtb [9] = settings: strain not stated; cited from earlier work
LepB = experiment: FRET assay with membrane-bound LepB; settings: M. smegmatis membranes
[10] = Mycobacterium tuberculosis, H37RV
[11] = HeLa, read-out: MTT assay IC50 95% confidence interval (CI)
[12] = Mycolicibacterium smegmatis, DSM43756

O=C(Nc1ccc(Cl)c(OC(F)(F)F)c1)NC1CCCCC1 [Compound 1]
MIC (M. tuberculosis H37Ra): 3.13 µM (≈ 1.05 µg/mL)

O=C(Nc1cc(C(F)(F)F)c(Cl)cn1)NC1CCCCC1 [Compound 2]
MIC (M. tuberculosis H37Ra): > 50 µM

CC1(NC(=O)Nc2ccc(Cl)c(C(F)(F)F)c2)CCCC1 [Compound 3]
MIC MTB H37Ra (M. tuberculosis H37Ra): 0.39 µM (≈ 0.125 µg/mL) | MIC (M. tuberculosis H37Ra): 0.4 µM (≈ 0.128 µg/mL)

CC1(NC(=O)Nc2ccc(F)c(C(F)(F)F)c2)CCCC1 [Compound 4]
MIC (M. tuberculosis H37Ra): 3.13 µM (≈ 0.952 µg/mL)

CC1(NC(=O)Nc2ccccc2)CCCC1 [Compound 5]
MIC (M. tuberculosis H37Ra): 25 µM (≈ 5.46 µg/mL)

CC1(NC(=O)Nc2ccc(F)c(F)c2F)CCCC1 [Compound 6]
MIC (M. tuberculosis H37Ra): > 50 µM

CC1(NC(=O)Nc2ccc(F)c(F)c2)CCCC1 [Compound 7]
MIC (M. tuberculosis H37Ra): 25 µM (≈ 6.36 µg/mL)

CC1(NC(=O)Nc2cc(F)c(F)c(F)c2)CCCC1 [Compound 8]
MIC (M. tuberculosis H37Ra): 25 µM (≈ 6.81 µg/mL)

O=C(Nc1ccc(Cl)c(C(F)(F)F)c1)NC1CCCC1 [Compound 9]
MIC MTB H37Ra (M. tuberculosis H37Ra): 3.13 µM (≈ 0.96 µg/mL) | MIC (M. tuberculosis H37Ra): 3.2 µM (≈ 0.981 µg/mL)

O=C(Nc1ccc(Cl)c(C(F)(F)F)c1)NC1CCC1 [Compound 10]
MIC (M. tuberculosis H37Ra): 25 µM (≈ 7.32 µg/mL)

O=C(Nc1ccc(Cl)c(C(F)(F)F)c1)NC1CC1 [Compound 11]
MIC (M. tuberculosis H37Ra): > 50 µM

CC1(NC(=O)Nc2ccc(Cl)c(C(F)(F)F)c2)CCCCC1 [Compound 12]
MIC MTB H37Ra (M. tuberculosis H37Ra): 0.10 µM (≈ 0.0335 µg/mL) | MIC (M. tuberculosis H37Ra): 0.1 µM (≈ 0.0335 µg/mL) | IC50 (WT M. tuberculosis H37Rv; [10]): 110 nM | MIC90 (WT M. tuberculosis H37Rv; [10]): 0.2 µM (≈ 0.067 µg/mL) | effect on bacteria from the Oligo-Mouse-Microbiota [1]: not affected | competition of 227-p1 labelling of EphF and EphD [2]: weaker competition | TDM/TMM ratio compared with 227 (MmpL3): even lower TDM/TMM ratios | solubility kinetic at 5 min (physchem): 12 µM (≈ 4.02 µg/mL)

CC1CCCCC1NC(=O)Nc1ccc(Cl)c(C(F)(F)F)c1 (centres unmarked) [Compound 13]
MIC (M. tuberculosis H37Ra): 0.39 µM (≈ 0.131 µg/mL)

CC1CCCC(NC(=O)Nc2ccc(Cl)c(C(F)(F)F)c2)C1 (centres unmarked) [Compound 14]
MIC (M. tuberculosis H37Ra): 0.39 µM (≈ 0.131 µg/mL)

CC1CCC(NC(=O)Nc2ccc(Cl)c(C(F)(F)F)c2)CC1 (centres unmarked) [Compound 15]
MIC (M. tuberculosis H37Ra): 0.39 µM (≈ 0.131 µg/mL)

O=C(Nc1ccc(Cl)c(C(F)(F)F)c1)NC1(CO)CCCCC1 [Compound 16]
MIC (M. tuberculosis H37Ra): 3.13 µM (≈ 1.1 µg/mL)

O=C(Nc1ccc(Cl)c(C(F)(F)F)c1)NC12CC3CC(CC(O)(C3)C1)C2 [Compound 18]
MIC (M. tuberculosis H37Ra): 6.25 µM (≈ 2.43 µg/mL)

O=C(Nc1ccc(Cl)c(C(F)(F)F)c1)NC12CC(C1)C2 [Compound 19]
MIC (M. tuberculosis H37Ra): 12.5 µM (≈ 3.81 µg/mL)

CC1(C)OCC(NC(=O)Nc2ccc(Cl)c(C(F)(F)F)c2)CO1 [Compound 20]
MIC (M. tuberculosis H37Ra): 3.13 µM (≈ 1.1 µg/mL)

O=C(Nc1ccc(Cl)c(C(F)(F)F)c1)NC1COC2(CCC2)OC1 [Compound 21]
MIC MTB H37Ra (M. tuberculosis H37Ra): 0.78 µM (≈ 0.285 µg/mL) | MIC (M. tuberculosis H37Ra): 0.8 µM (≈ 0.292 µg/mL) | IC50 (WT M. tuberculosis H37Rv; [10]): 850 nM | MIC90 (WT M. tuberculosis H37Rv; [10]): 1.8 µM (≈ 0.657 µg/mL) | effect on bacteria from the Oligo-Mouse-Microbiota [1]: not affected; also recorded: does not kill | fractional inhibitory concentration (FIC) index (MTB [3]): 0.83 | competition of 227-p1 labelling of EphF and EphD [2]: weaker competition | MmpL3 abundance, Student's T-test Difference DMJB-04 0.5 µM vs DMSO (Mtb H37Ra proteome; full proteome, Mtb H37Ra, 0.5 µM): 0.4086 | membrane disruption (propidium iodide entry) [4]: Neither 227 nor 21 disrupt the membrane | TDM/TMM ratio compared with 227 (MmpL3): even lower TDM/TMM ratios | EphF inhibition (epoxide hydrolase EphF): inhibits EphF, albeit to a lesser extent | IC50 (HeLa cells; [11]): 52 to 97 µM | IC50 (HeLa cells; HeLa cells, 24 h, read-out: IC50 MTT assay): 71 µM | estimated time above MIC (in vivo [5]): approximately 16 hours | F (in vivo [5]; po, 200 mg/kg): 24.3% | AUC (in vivo [5]; po, 200 mg/kg): 45.7 µM·h | bioavailability (in vivo [5]; po, 200 mg/kg): 25.3% | AUC (in vivo [5]; po, 400 mg/kg): 73.3 µM·h | bioavailability (in vivo [5]; po, 400 mg/kg): 20.4% | CD [6]: 3.38 L/kg | Clearance [6]: 50.82 mL/(kg*min] | AUC (in vivo [7]; iv, 5 mg/kg): 4.58 µM·h | Cmax (in vivo [7]; iv, 5 mg/kg): 6.27 µM | half-life (in vivo [7]; iv, 5 mg/kg): 46.2 min | AUC (in vivo [7]; po, 25 mg/kg): 9.54 µM·h | Cmax (in vivo [7]; po, 25 mg/kg): 4.04 µM | bioavailability (in vivo [7]; po, 25 mg/kg): 42.5% | solubility kinetic at 5 min (physchem): > 200 µM | half-life at 5 µM (in vitro): 8 min | microsomal CLint at 5 µM (in vitro): 88 µL/min/mg

O=C(Nc1ccc(Cl)c(C(F)(F)F)c1)NC1CCC2(CC1)OCCO2 [Compound 22]
MIC (M. tuberculosis H37Ra): 1.56 to 3.13 µM (≈ 0.591 to 1.19 µg/mL) | solubility kinetic at 5 min (physchem): 112 µM (≈ 42.4 µg/mL)

CC1(NC(=O)Nc2ccc(Cl)c(C(F)(F)F)c2)COC2(CCC2)OC1 [Compound 23]
MIC MTB H37Ra (M. tuberculosis H37Ra): 6.25 to 12.5 µM | MIC (M. tuberculosis H37Ra): 6.25 µM (≈ 2.37 µg/mL) | solubility kinetic at 5 min (physchem): 58 µM (≈ 22 µg/mL)

C#CCCC1(CCOC(=O)c2ccc(NC(=O)Nc3ccccc3)cc2)N=N1 [Compound 150-pi]
MIC MTB H37Ra (M. tuberculosis H37Ra): inactive

C#CC1(NC(=O)Nc2ccc(N=[N+]=[N-])cc2)CCCCC1 [Compound 227-p1]
MIC (M. tuberculosis H37Ra): 25 µM (≈ 7.08 µg/mL) | MIC (M. smegmatis DSM43756; [12]): 6.25 µM (≈ 1.77 µg/mL) | EphD and EphF enrichment by probe ([2]; 5 μM 227-p1, Mtb): significantly enriched

C#CCCC1(CCOC(=O)c2ccc(NC(=O)NC3CCCCC3)cc2)N=N1 [Compound 227-p2]
MIC (M. tuberculosis H37Ra): > 50 µM | MIC (M. smegmatis DSM43756; [12]): > 50 µM

C#CCCC1(CCOC(=O)C2CCC(NC(=O)Nc3ccc(Cl)c(C(F)(F)F)c3)CC2)N=N1 (centres unmarked) [Compound 227-p3]
MIC (M. tuberculosis H37Ra): > 50 µM | MIC (M. smegmatis DSM43756; [12]): > 50 µM

O=C(Nc1ccc(Cl)c(C(F)(F)F)c1)NC1CCCCC1 [Compound 227]
MIC (M. tuberculosis H37Ra): 1.56 to 3.13 µM (≈ 0.5 to 1 µg/mL) | MIC (WT M. tuberculosis H37Rv): 1.8 µM (≈ 0.577 µg/mL) | IC50 (WT M. tuberculosis H37Rv; [10]): 1300 nM | MIC (WT M. tuberculosis H37Rv; [10]): 1.8 µM (≈ 0.577 µg/mL) | MIC90 (WT M. tuberculosis H37Rv; [10]): 2.5 µM (≈ 0.802 µg/mL) | competition of 227-p1 labelling of EphF and EphD [2]: strongly out-competed; also recorded: out-competed | membrane disruption (propidium iodide entry) [4]: Neither 227 nor 21 disrupt the membrane | EphF inhibition (epoxide hydrolase EphF): strong inhibition | IC50 (HeLa cells; [11]): 15 to 37 µM | Clearance [6]: fast clearance | bioavailability (in vivo [7]; po, 25 mg/kg): 8.6% | solubility kinetic at 5 min (physchem): 55 µM (≈ 17.6 µg/mL)

O=C(Nc1cc(C(F)(F)F)cc(C(F)(F)F)c1)Nc1ccc(Cl)c(OC(F)(F)F)c1 [Compound 275]
MIC (M. smegmatis DSM43756; [12]): 0.8 µM (≈ 0.373 µg/mL)

CC[C@@H](CO)NCCN[C@@H](CC)CO [Ethambutol]
susceptibility shift in MmpL3 under-expressing strain [8]: no significant shifts

O=C(Nc1ccc2c(c1)OC(F)(F)O2)Nc1ccc(Cl)c(C(F)(F)F)c1 [PK150]
MIC (M. smegmatis DSM43756): 3.1 µM (≈ 1.22 µg/mL) | MIC against Mtb (Mtb [9]): 6.25 µM (≈ 2.47 µg/mL) | modulation of LepB activity (LepB): not a target; also recorded: did not show any inhibition

CC(C)=CCC/C(C)=C/CNCCNC1C2CC3CC(C2)CC1C3 (centres unmarked) [SQ109, reference compound]
dysregulated in FP? (Mtb H37Ra proteome; full proteome (FP), protein Rv3587c (O53572), probable conserved membrane protein): slightly upregulated with SQ109 treatment
